Experiments:
cardiac myocytes = assay: Cardiac cell protective and adaptive (anabolic) effects in vitro, comparison of alpha-1-agonists; format: cell-based
[1] = Learning and memory, Barnes maze, long-term treatment of normal WT mice; format: in vivo, mouse; conditions: 9 months, 10 mg/L in drinking water
Method: FIG. 18. Long-term alpha-1A agonist therapy improves learning and memory. Normal WT mice were treated 9 months with the alpha-1A agonist cirazoline, 10 mg/L in drinking water, and learning and memory were tested versus control mice using the Barnes maze. Left. […] Right. […] These studies treated mice for long periods with cirazoline, adding it to the drinking water. Mice treated with cirazoline had improvements in tests of learning and of memory (FIG. 18). […] 9 months in a mouse is equivalent to 18 to 27 years in a human.

SMILES: c1ccc(C2CC2)c(OCC2=NCCN2)c1 [cirazoline]
- potency and efficacy relative to A61603 (cardiac myocytes; cardiac myocytes, FIG. 1-2): a good bit less potent and efficacious
- specificity, potency, efficacy in stimulating anabolic effects in cells relative to A61603 (cardiac myocytes; cells (e.g. cardiac myocytes)): not as specific, potent, or efficacious as A61603
- memory trials (errors made) [1]: Findings were similar
- errors in learning trials ([1]; vs control mice): fewer errors
- time to solve in learning trials ([1]; vs control mice): faster to solve

Source: patent publication US9364462B2, “Alpha-1-adrenergic receptor agonist therapy” (The Regents of the University of California, priority 2012, dated 2016)
